Source: patent US11590116B2 (THERAVANCE BIOPHARMA R&D IP, LLC, priority 2019, dated 2023)

Legend:
[1] = molecular target: T1, recombinant human ALK5 (TGF-βR1) protein (Homo sapiens, UniProt P36897); test: Biochemical ALK5 (TGF-βR1) assay to measure pKi (LANCE Ultra ULight kinase assay); settings: apparent pKi from pIC50 by Cheng-Prusoff, read-out: ALK5 pKi (converted)
T1 construct: purchased Life Technologies PR9075A
T1 sequence (P36897 34-503): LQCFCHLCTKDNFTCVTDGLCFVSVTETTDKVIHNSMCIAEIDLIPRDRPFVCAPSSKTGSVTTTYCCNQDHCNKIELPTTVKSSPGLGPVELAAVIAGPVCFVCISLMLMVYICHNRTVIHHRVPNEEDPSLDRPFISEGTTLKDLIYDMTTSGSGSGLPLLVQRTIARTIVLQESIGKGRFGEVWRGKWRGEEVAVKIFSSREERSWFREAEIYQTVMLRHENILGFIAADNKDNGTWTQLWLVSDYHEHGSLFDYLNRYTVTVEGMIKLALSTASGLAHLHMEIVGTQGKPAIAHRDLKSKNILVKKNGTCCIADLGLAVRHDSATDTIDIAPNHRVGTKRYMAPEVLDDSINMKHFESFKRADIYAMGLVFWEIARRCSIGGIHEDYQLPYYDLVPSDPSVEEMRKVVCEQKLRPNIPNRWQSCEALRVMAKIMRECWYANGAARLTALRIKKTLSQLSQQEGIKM
Summary of the method: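 Compounds (10 μM to 25 pM) were preincubated 60 min at room temperature with enzyme, then reactions were started with ATP (125 μM stock, 5× final) and run 60 min at 37 °C. EDTA-containing Eu-anti-phospho-Topo IIα (Thr1342) antibody stopped the reaction; TR-FRET read at 665 nm. pIC50 from 4-parameter fit, converted to pKi via Cheng-Prusoff.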

[2] = test system: TGF-β-stimulated SMAD3 phosphorylation in BEAS-2B cells; test: Cellular ALK5 potency assay, inhibition of TGF-β stimulated pSMAD3 formation in BEAS-2B cells; assay type: cell-based; settings: Homo sapiens; inhibition of TGF-β stimulated pSMAD3 formation, BEAS-2B cells; read-out: BEAS2B pIC50 (converted)
Summary of the method: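 BEAS-2B human lung epithelial cells pre-treated 1 h at 37° C with compound in HBSS/25 mM HEPES/1% BSA, then stimulated 30 min with 10 ng/mL TGF-β (final). Lysates assayed for pSMAD3 by AlphaLISA; pIC50 from dose-dependent change versus stimulated untreated cells.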

Ki [1] | SMILES | IC50 [2]
0.0398 to 0.316 nM | Cc1nc(-c2nc3ccccn3c2-c2ccc3ncc(-c4cn5c(n4)CNCC5)cc3n2)ccc1F [Compound 555, 2-[2-(5-fluoro-6-methyl-2-pyridyl)imidazo[1,2-a]pyridin-3-yl]-7-(5,6,7,8-tetrahydroimidazo[1,2-a]pyrazin-2-yl)-1,5-naphthyridine] | 25.1 to 158 nM
0.398 to 3.16 nM | Cc1cccc(-c2n[nH]cc2-c2ccc3ncc(NC(C)(C)CN4CCN(C)CC4)cc3n2)n1 [Compound 556, N-[1,1-dimethyl-2-(4-methylpiperazin-1-yl)ethyl]-6-[3-(6-methyl-2-pyridyl)-1H-pyrazol-4-yl]-1,5-naphthyridin-3-amine] | 25.1 to 158 nM
3.98 to 31.6 nM | Cc1cccc(-c2[nH]nnc2-c2ccc3ncc(N4CCCNCC4)cc3n2)n1 [Compound 557, 7-(1,4-diazepan-1-yl)-2-[5-(6-methyl-2-pyridyl)-1H-triazol-4-yl]-1,5-naphthyridine] | 1580 to 10000 nM
0.0398 to 0.316 nM | Cc1nc(-c2nc3ccccn3c2-c2ccc3ncc(-c4cc5n(n4)CCNC5)cc3n2)ccc1F [Compound 558, 2-[2-(5-fluoro-6-methyl-2-pyridyl)imidazo[1,2-a]pyridin-3-yl]-7-(4,5,6,7-tetrahydropyrazolo[1,5-a]pyrazin-2-yl)-1,5-naphthyridine] | 25.1 to 158 nM
0.0398 to 0.316 nM | CNCCn1cc(-c2cnc3ccc(-c4nc[nH]c4-c4ccc(F)c(C)n4)nc3c2)cn1 [Compound 559, 2-[4-[6-[5-(5-fluoro-6-methyl-2-pyridyl)-1H-imidazol-4-yl]-1,5-naphthyridin-3-yl]pyrazol-1-yl]-N-methyl-ethanamine] | 25.1 to 158 nM
0.0398 to 0.316 nM | Cc1nc(-c2nc3ccccn3c2-c2ccc3ncc(-c4cnc5n4CCNC5)cc3n2)ccc1F [Compound 560, 2-[2-(5-fluoro-6-methyl-2-pyridyl)imidazo[1,2-a]pyridin-3-yl]-7-(5,6,7,8-tetrahydroimidazo[1,2-a]pyrazin-3-yl)-1,5-naphthyridine] | 25.1 to 158 nM
< 0.0316 nM | Cc1cccc(-c2n[nH]cc2-c2ccc3ncc(-c4ccc(N)nc4)cc3n2)n1 [Compound 562, 5-[6-[3-(6-methyl-2-pyridyl)-1H-pyrazol-4-yl]-1,5-naphthyridin-3-yl]pyridin-2-amine] | < 20 nM
0.0398 to 0.316 nM | Cc1cccc(-c2[nH]ncc2-c2ccc3ncc(C(=O)O[C@H]4CCN(C)C4)cc3n2)n1 [Compound 563, [(3S)-1-methylpyrrolidin-3-yl]6-[5-(6-methyl-2-pyridyl)-1H-pyrazol-4-yl]-1,5-naphthyridine-3-carboxylate] | 25.1 to 158 nM
< 0.0316 nM | Cc1cccc(-c2n[nH]cc2-c2ccc3ncc(-c4cc5n(n4)CCN5)cc3n2)n1 [Compound 564, 7-(2,3-dihydro-1H-imidazo[1,2-b]pyrazol-6-yl)-2-[3-(6-methyl-2-pyridyl)-1H-pyrazol-4-yl]-1,5-naphthyridine] | < 20 nM
< 0.0316 nM | Cc1cccc(-c2n[nH]cc2-c2ccc3ncc(-c4ccncc4)cc3n2)n1 [Compound 565, 2-[3-(6-methyl-2-pyridyl)-1H-pyrazol-4-yl]-7-(4-pyridyl)-1,5-naphthyridine] | < 20 nM
0.0398 to 0.316 nM | Cc1cccc(-c2n[nH]cc2-c2ccc3ncc(NCC4CN5CCN4CC5)cc3n2)n1 (centres unmarked) [Compound 566, N-(1,4-diazabicyclo[2.2.2]octan-2-ylmethyl)-6-[3-(6-methyl-2-pyridyl)-1H-pyrazol-4-yl]-1,5-naphthyridin-3-amine] | 25.1 to 158 nM
0.398 to 3.16 nM | Cc1cccc(-c2nnn(C)c2-c2ccc3ncc(N4CCCNCC4)cc3c2)n1 [Compound 567, 3-(1,4-diazepan-1-yl)-6-[3-methyl-5-(6-methyl-2-pyridyl)triazol-4-yl]quinoline] | 25.1 to 158 nM
0.0398 to 0.316 nM | Cc1nc(-c2[nH]cnc2-c2ccc3ncc(NCCN4CCCC4)cc3n2)ccc1F [Compound 568, 6-[5-(5-fluoro-6-methyl-2-pyridyl)-1H-imidazol-4-yl]-N-(2-pyrrolidin-1-ylethyl)-1,5-naphthyridin-3-amine] | 25.1 to 158 nM
0.0398 to 0.316 nM | Cc1nc(-c2n[nH]cc2-c2ccc3ncc(-c4cnn([C@@H]5CCC[C@@H]5N)c4)cc3n2)ccc1F [Compound 569, (1S,2R)-2-[4-[6-[3-(5-fluoro-6-methyl-2-pyridyl)-1H-pyrazol-4-yl]-1,5-naphthyridin-3-yl]pyrazol-1-yl]cyclopentanamine] | 25.1 to 158 nM
< 0.0316 nM | Cc1cccc(-c2n[nH]cc2-c2ccc3ncc(-c4cnn5c4NCC5)cc3n2)n1 [Compound 570, 7-(2,3-dihydro-1H-imidazo[1,2-b]pyrazol-7-yl)-2-[3-(6-methyl-2-pyridyl)-1H-pyrazol-4-yl]-1,5-naphthyridine] | < 20 nM
< 0.0316 nM | Cc1cccc(-c2n[nH]cc2-c2ccc3ncc(-c4cnn(CCN5CCCC5=O)c4)cc3n2)n1 [Compound 571, 1-[2-[4-[6-[3-(6-methyl-2-pyridyl)-1H-pyrazol-4-yl]-1,5-naphthyridin-3-yl]pyrazol-1-yl]ethyl]pyrrolidin-2-one] | 25.1 to 158 nM
0.0398 to 0.316 nM | Cc1cccc(-c2[nH]cnc2-c2ccc3ncc(-c4cnn(CCN)c4)cc3c2)n1 [Compound 572, 2-[4-[6-[5-(6-methyl-2-pyridyl)-1H-imidazol-4-yl]-3-quinolyl]pyrazol-1-yl]ethanamine] | 25.1 to 158 nM
0.0398 to 0.316 nM | Cc1cccc(-c2[nH]cnc2-c2ccc3ncc(NCCN4CCCC4)cc3n2)n1 [Compound 573, 6-[5-(6-methyl-2-pyridyl)-1H-imidazol-4-yl]-N-(2-pyrrolidin-1-ylethyl)-1,5-naphthyridin-3-amine] | 25.1 to 158 nM
< 0.0316 nM | Cc1nc(-c2n[nH]cc2-c2ccc3ncc(-c4cc5n(n4)CCN5)cc3n2)ccc1F [Compound 574, 7-(2,3-dihydro-1H-imidazo[1,2-b]pyrazol-6-yl)-2-[3-(5-fluoro-6-methyl-2-pyridyl)-1H-pyrazol-4-yl]-1,5-naphthyridine] | < 20 nM
0.0398 to 0.316 nM | Cc1nc(-c2nc3ccccn3c2-c2ccc3ncc(-c4cnn(C5CCCNC5)c4)cc3n2)ccc1F (centres unmarked) [Compound 576, 2-[2-(5-fluoro-6-methyl-2-pyridyl)imidazo[1,2-a]pyridin-3-yl]-7-[1-(3-piperidyl)pyrazol-4-yl]-1,5-naphthyridine] | 25.1 to 158 nM
0.0398 to 0.316 nM | Cc1cccc(-c2[nH]cnc2-c2ccc3ncc(-c4cncc(C(=O)OC5CNC5)c4)cc3c2)n1 [Compound 577, azetidin-3-yl 5-[6-[5-(6-methyl-2-pyridyl)-1H-imidazol-4-yl]-3-quinolyl]pyridine-3-carboxylate] | 200 to 1260 nM
3.98 to 31.6 nM | Cc1cccc(-c2c(-c3ccc4ncc(N5CCC(N6CCN(C)CC6)CC5)cc4c3)nnn2Cc2ccccc2)n1 [Compound 578, 6-[1-benzyl-5-(6-methyl-2-pyridyl)triazol-4-yl]-3-[4-(4-methylpiperazin-1-yl)-1-piperidyl]quinoline] | 1580 to 10000 nM
0.0398 to 0.316 nM | Cc1cccc(-c2[nH]cnc2-c2ccc3ncc(NC(=O)C4CNC4)cc3c2)n1 [Compound 579, N-[6-[5-(6-methyl-2-pyridyl)-1H-imidazol-4-yl]-3-quinolyl]azetidine-3-carboxamide] | 1580 to 10000 nM
0.0398 to 0.316 nM | Cc1cccc(-c2n[nH]cc2-c2ccc3ncc(N4CCCNCC4)cc3c2)n1 [Compound 580, 3-(1,4-diazepan-1-yl)-6-[3-(6-methyl-2-pyridyl)-1H-pyrazol-4-yl]quinoline] | 25.1 to 158 nM
< 0.0316 nM | Cc1cccc(-c2[nH]cnc2-c2ccc3ncc(-c4cccc(N5CCNCC5)c4)cc3c2)n1 [Compound 581, 6-[5-(6-methyl-2-pyridyl)-1H-imidazol-4-yl]-3-(3-piperazin-1-ylphenyl)quinoline] | 25.1 to 158 nM
< 0.0316 nM | COC(=O)c1coc(-c2cnc3ccc(-c4c[nH]nc4-c4cccc(C)n4)nc3c2)n1 [Compound 582, methyl 2-[6-[3-(6-methyl-2-pyridyl)-1H-pyrazol-4-yl]-1,5-naphthyridin-3-yl]oxazole-4-carboxylate] | 25.1 to 158 nM
0.0398 to 0.316 nM | Cc1cccc(-c2[nH]cnc2-c2ccc3ncc(N4CCC(NC(=O)C5CCNCC5)CC4)cc3c2)n1 [Compound 583, N-[1-[6-[5-(6-methyl-2-pyridyl)-1H-imidazol-4-yl]-3-quinolyl]-4-piperidyl]piperidine-4-carboxamide] | 1580 to 10000 nM
0.0398 to 0.316 nM | Cc1cccc(-c2nnn(Cc3ccccc3)c2-c2ccc3ncc(NCCN4CCN(C(C)C)CC4)cc3c2)n1 [Compound 584, 6-[3-benzyl-5-(6-methyl-2-pyridyl)triazol-4-yl]-N-[2-(4-isopropylpiperazin-1-yl)ethyl]quinolin-3-amine] | 200 to 1260 nM
